{"source": "patent US20170298051A1", "about": "“ACTIVATOR OF ADIPONECTIN RECEPTOR” (THE UNIVERSITY OF TOKYO, priority 2013, published 2017)", "key": {"Human AdipoR2": {"biological_target": "T1, Human AdipoR2 (Homo sapiens, UniProt Q86V24)", "T1 construct": "made in house", "T1 sequence (Q86V24 1-386)": "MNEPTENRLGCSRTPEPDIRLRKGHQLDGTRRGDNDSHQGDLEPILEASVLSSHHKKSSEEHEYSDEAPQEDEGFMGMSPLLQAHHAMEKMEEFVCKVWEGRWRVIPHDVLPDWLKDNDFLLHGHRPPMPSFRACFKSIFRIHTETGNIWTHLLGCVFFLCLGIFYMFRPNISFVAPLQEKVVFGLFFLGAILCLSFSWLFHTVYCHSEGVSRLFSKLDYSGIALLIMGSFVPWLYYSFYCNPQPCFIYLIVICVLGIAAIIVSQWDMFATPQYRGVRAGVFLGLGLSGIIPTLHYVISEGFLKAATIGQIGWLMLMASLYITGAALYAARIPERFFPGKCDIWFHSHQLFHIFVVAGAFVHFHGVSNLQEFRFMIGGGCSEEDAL", "test": "Surface plasmon resonance, affinity for AdipoR2", "type": "binding", "details": "SPR", "procedure": "Surface plasmon resonance measurements were performed by a BIAcore X100 system (GE Healthcare) and sensor chip SA (GE Healthcare). Human AdipoR1 and AdipoR2 were expressed with the baculovirus system, and purified to homogeneity. The AdipoR1 and AdipoR2 samples were then reconstituted into egg-phosphatidylcholine liposomes containing biotinyl phosphatidylethanolamine (Avanti), as previously reported^a. Mouse full-length adiponectin was generated as previously described^b,c,d,e. AdipoR1 and AdipoR2 were immobilized onto a sensor chip SA to levels of 2,500-3,000 response units (RU) using standard immobilization protocols (GE Healthcare).\nExperiments were performed at 25° C. using AdipoRon (0.49-31.25 μM) and adiponectin (1.5 ng-3.75 μg) and using electrophoresis buffer (20 mM Hepes (pH 7.4), 200 mM NaCl, 10% glycerol, […] surfactant P20). Biacore X100 Evaluation Software was used to determine the equilibrium dissociation constant (KD) of the compound or proteins."}, "rhodopsin receptor": {"tested_on": "rhodopsin receptor", "test": "Surface plasmon resonance, rhodopsin receptor control", "type": "binding", "details": "SPR"}, "AMPK": {"tested_on": "AMPK", "test": "AMPK phosphorylation in vivo in skeletal muscle and liver", "design": "species or system mice", "details": "intravenous 50 mg/kg", "procedure": "Immunoblotting was carried out according to the method described previously by which the livers, muscles or white adipose tissues were freeze-clamped in liquid nitrogen in situ^b,d,e.\nThe procedures used for immunoprecipitation and immunoblotting have been described previously^a,f. Muscle, liver or cell lysates were incubated with 60 μl of protein G sepharose linked to antibodies against phosphotyrosine (4G10) (Merck Millipore). Beads were then washed, the resultant was boiled for 5 min in a sample buffer and the immunoprecipitates were subjected to immunoblotting. Phosphorylation and/or the protein levels of AMPKα (Cell signaling #2535, #2532), IRβ (Upstate 05-321, Santa Cruz sc-711), AKT (Cell signaling #9271, #9272), GSK3 (Cell signaling #5558, #9315) and tubulin (NeoMarkers RB-9281-PO) were determined as described^a,g,h."}, "[1]": {"tested_on": "HF diet-induced obese mice", "test": "Oral glucose tolerance test and insulin tolerance in HF diet-induced obese mice", "type": "in vivo", "details": "WT mice on HF diet, oral 50 mg/kg, 10 days", "procedure": "The original Adipor1^+/−/Adipor2^+/− mice (C57BL/6 and 129/Sv mixed background)^a were backcrossed with C57B1/6 mice more than seven times. All experiments in this study were conducted on male littermates.\n(§1) Mice were 6-10 week of age at the time of the experiment. They were housed in cages and maintained on a 12 hr light-dark cycle.\n(§2) Plasma glucose levels were determined by using a glucose B-test (Wako Pure Chemical Industries). Plasma insulin was measured with an insulin immunoassay (Shibayagi). Plasma NEFAs (Wako Pure Chemical Industries) were assayed by enzymatic methods.\n(§3) The oral glucose tolerance test (OGTT) and insulin tolerance test (ITT) were conducted as previously described^a,b with slight modifications. The areas of the glucose and insulin curves were calculated by multiplying the cumulative mean height of the glucose values (1 mg/ml=1 cm) and insulin values (1 ng/ml=1 cm), respectively, by time (60 min=1 cm)^c,a. The insulin resistance index was calculated from the product of the areas of glucose and insulin×10^−2 in the glucose tolerance test. The results are expressed as the percentage of the value respect to control littermates."}, "mice on a HF diet": {"tested_on": "mice on a HF diet", "test": "Hyperinsulinemic euglycemic clamp study in mice on a HF diet", "type": "in vivo", "procedure": "Clamp studies were carried out as described previously^a,b, with slight modifications. In brief, 2-3 days before the study, an infusion catheter was inserted into the right jugular vein under general anesthesia with sodium pentobarbital. Studies were performed on mice under conscious and unstressed conditions after a 6 h fast. A primed continuous infusion of insulin (Humulin R, Lilly) was given (10.0 milliunits/kg/min),and the blood glucose concentration, monitored every 5 min, was maintained at 120 mg/dl by administration of glucose (5 g of glucose per 10 ml enriched to 20% with [6,6-^2H2] glucose (Sigma)) for 120 min. Blood was sampled via tail tip bleeds at 90, 105, and 120 min for determination of the rate of glucose disappearance (Rd). Rd was calculated according to nonsteady-state equations, and endogenous glucose production (EGP) was calculated as the difference between Rd and exogenous glucose infusion rates^a,b,c."}, "[2]": {"tested_on": "AdipoR1-AMPK-PGC-1α pathways in skeletal muscle", "test": "Skeletal muscle: gene expression, mitochondrial DNA content, TG content, TBARS in mice fed a HF diet", "type": "in vivo", "procedure": "Mitochondrial content assays were carried out as described previously^a,b, with slight modifications. For quantification of mitochondrial content, we used mtDNAas previously described^c.\nReal-time PCR was carried out according to the method described previously^a,b,c. Total RNA was prepared from cells or tissues with Trizol (Invitrogen) according to the manufacturer's instructions. We used a real-time PCR method to quantify the mRNAs^19, with slight modifications.\nSkeletal muscle homogenates were extracted, and tissue triglyceride content was determined as described previously^a-c, with some modifications. To investigate whether oxidative stress was increased, we measured lipid peroxidation, a marker of oxidative injury, as represented by plasma thiobarbituric acid reactive substance (TBARS) as described previously^4. Briefly, tissue samples were homogenized in a buffer solution containing 50 mM Tris-HCl (pH 7.4) and 1.15% KCl, and then centrifuged. The supernatant was used for the assay. The levels of lipid peroxidation in tissue homogenate and plasma were measured in terms of the amount of TBARS using the LPO test (Wako Pure Chemical Industries)."}, "Lepr−/− (db/db) mice": {"tested_on": "Lepr−/− (db/db) mice", "test": "Anti-diabetic effects in db/db mice", "type": "in vivo", "procedure": "as §1\nMale Lepr^−/− (aged 6-10 week) were purchased from Jackson Laboratory. When the mice in the same genotype received different treatments, they were randomly assigned to treatment groups.\nas §2, §3"}, "[3]": {"details": "Adipor1/r2 double-knockout mice"}, "[4]": {"details": "WT mice on HF diet, 10 days of administration"}}}
{"smiles": "O=C(COc1ccc(C(=O)c2ccccc2)cc1)NC1CCN(Cc2ccccc2)CC1", "note": "[Compound 73, 2-(4-benzoyl-phenoxy)-N-(1-benzylpiperidin-4-yl)acetamide]", "values": [{"measurement": "Rmax", "setting": "Human AdipoR2", "result": 8.6, "unit": "RU"}, {"measurement": "Kd", "setting": "Human AdipoR2; 25° C., read-out: equilibrium dissociation constant (KD)", "result": 3.1, "unit": "µM"}, {"measurement": "reaction with rhodopsin receptor (control)", "setting": "rhodopsin receptor", "result": "does not react a rhodopsin receptor at all"}, {"measurement": "phosphorylation of AMPK in skeletal muscle and liver", "setting": "AMPK; [3]", "result": "but not in Adipor1/r2 double-knockout mice"}, {"measurement": "phosphorylation of AMPK in skeletal muscle and liver", "setting": "AMPK; wild-type (WT) mice", "result": "significantly induced phosphorylation of AMPK"}, {"measurement": "fasting plasma glucose and insulin levels, glucose and insulin responses during OGTT", "setting": "[1]", "result": "significant decrease"}, {"measurement": "insulin sensitivity", "setting": "[1]", "result": "improved insulin sensitivity"}, {"measurement": "GIR, EGP and Rd", "setting": "mice on a HF diet; [3]", "result": "None of these parameters were improved"}, {"measurement": "endogenous glucose production (EGP)", "setting": "mice on a HF diet; [4]", "result": "significantly suppressed"}, {"measurement": "glucose disposal rate (Rd)", "setting": "mice on a HF diet; [4]", "result": "significantly increased"}, {"measurement": "glucose infusion rate (GIR)", "setting": "mice on a HF diet; [4]", "result": "significantly increased"}, {"measurement": "effects on mitochondrial genes and mitochondrial DNA content in skeletal muscle", "setting": "[2]; [3]", "result": "totally obliterated"}, {"measurement": "levels of type I fiber marker Troponin I (slow) (Tnni1)", "setting": "[2]; [3]", "result": "but not in Adipor1/r2 double-knockout mice"}, {"measurement": "effect on Sod2 and TBARS", "setting": "[2]; Adipor1/r2 double-knockout mice fed with a HF diet", "result": "such effect was not observed"}, {"measurement": "levels of type I fiber marker Troponin I (slow) (Tnni1)", "setting": "[2]; WT mice", "result": "increased the levels"}, {"measurement": "mitochondrial DNA content in skeletal muscle", "setting": "[2]; WT mice", "result": "increased mitochondrial DNA content"}, {"measurement": "TG content in the skeletal muscle", "setting": "[2]; WT mice fed with a HF diet", "result": "decreased TG content"}, {"measurement": "expression levels of oxidative stress detoxifying genes such as Sod2", "setting": "[2]; skeletal muscle, WT mice", "result": "significantly increased expression levels"}, {"measurement": "genes involved in fatty acid oxidation such as Acadm", "setting": "[2]; skeletal muscle, WT mice", "result": "significantly increased"}, {"measurement": "oxidative stress markers such as TBARS", "setting": "[2]; skeletal muscle, WT mice", "result": "decreased oxidative stress markers"}, {"measurement": "plasma glucose level", "setting": "Lepr−/− (db/db) mice; oral 50 mg/kg body weight", "result": "decreased plasma glucose level"}, {"measurement": "glucose intolerance, insulin resistance and dyslipidemia", "setting": "Lepr−/− (db/db) mice; oral, 2 weeks", "result": "significantly ameliorated"}]}
